Laboratory results published in US8067447B2, “Modulators of glucocorticoid receptor, AP-1, and/or NF-κB activity and use thereof” (Bristol-Myers Squibb Company, priority 2006, dated 2011).

Experiments:
[1] = system: AP-1 induced transcriptional activity; experiment: Cellular Transrepressional Assay (AP-1 luciferase reporter in A549 cells, PMA-activated); assay type: cell-based; conditions: Homo sapiens, A549, 7 h, A549 cells with 7x AP-1 luciferase reporter, 10 ng/ml PMA, read-out: AP-1 (EC50, nM) (Cellular Transrepression Assay)
How it was run: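 Stable A549 AP-1 (7× sites) luciferase reporter line stimulated with 10 ng/ml PMA plus test molecules (0.1 nM to 40 μM) for 7 h. Luminescence read after 10 min with luciferase reagent; EC50 from % decrease of PMA-induced signal.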

[2] = target: T1, human full-length glucocorticoid receptor (Homo sapiens, UniProt P04150); experiment: Glucocorticoid Receptor Binding Assay (II), fluorescence polarization competitor kit (Fluormone GS1); conditions: cell lysate with recombinant human full-length GR, 1 nM Fluormone GS1, FP
T1 construct: a cell lysate containing recombinantly expressed human full-length glucocorticoid receptor; purchased PanVera Co., Madison, Wis; P2816
T1 sequence (P04150 1-777): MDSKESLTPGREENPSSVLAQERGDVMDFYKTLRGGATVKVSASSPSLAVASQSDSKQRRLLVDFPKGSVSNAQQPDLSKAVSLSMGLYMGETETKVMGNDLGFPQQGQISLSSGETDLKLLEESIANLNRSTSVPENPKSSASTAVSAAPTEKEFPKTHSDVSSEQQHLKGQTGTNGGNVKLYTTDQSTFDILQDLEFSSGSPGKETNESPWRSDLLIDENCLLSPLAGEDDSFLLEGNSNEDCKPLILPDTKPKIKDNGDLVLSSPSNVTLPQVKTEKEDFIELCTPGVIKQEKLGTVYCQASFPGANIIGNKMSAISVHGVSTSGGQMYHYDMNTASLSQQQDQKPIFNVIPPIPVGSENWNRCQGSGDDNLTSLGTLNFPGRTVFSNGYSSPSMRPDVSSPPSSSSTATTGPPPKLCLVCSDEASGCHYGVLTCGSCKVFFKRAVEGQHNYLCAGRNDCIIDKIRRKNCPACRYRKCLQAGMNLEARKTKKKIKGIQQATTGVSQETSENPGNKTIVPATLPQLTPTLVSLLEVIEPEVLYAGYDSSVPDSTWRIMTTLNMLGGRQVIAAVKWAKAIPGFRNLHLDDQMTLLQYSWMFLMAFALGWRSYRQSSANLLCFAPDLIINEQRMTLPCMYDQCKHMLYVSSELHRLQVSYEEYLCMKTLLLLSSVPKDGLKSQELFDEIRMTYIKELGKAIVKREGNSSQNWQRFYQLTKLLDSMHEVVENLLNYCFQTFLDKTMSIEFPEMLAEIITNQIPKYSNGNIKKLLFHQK
How it was run: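 Recombinant full-length human GR in cell lysate competed against 1 nM fluorescent glucocorticoid tracer (Fluormone GS1) with or without test compound. Fluorescence polarization read after 1 h at room temperature.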

| EC50 [1] | Ki [2] | Compound |
| --- | --- | --- |
| 2 nM | 2.3 nM | O=C(Nc1nncs1)C(C1CCCC1)C(c1ccccc1)c1ccc2c(cnn2-c2ccc(F)cc2)c1 (centres unmarked) [Example 147, 2-cyclopentyl-3-(1-(4-fluorophenyl)-1H-indazol-5-yl)-3-phenyl-N-(1,3,4-thiadiazol-2-yl)propanamide] |
| 6 nM | 6.4 nM | O=C(Nc1nncs1)C(C1CCCCC1)C(c1ccccc1)c1ccc2c(cnn2-c2ccc(F)cc2)c1 (centres unmarked) [Example 148, 2-cyclohexyl-3-(1-(4-fluorophenyl)-1H-indazol-5-yl)-3-phenyl-N-(1,3,4-thiadiazol-2-yl)propanamide] |
| 130 nM | 4.7 nM | CCC(CC)(C(=O)Nc1nncs1)C(c1ccccc1)c1ccc2c(cnn2-c2ccc(F)cc2)c1 (centres unmarked) [Example 149, 2-ethyl-2-((1-(4-fluorophenyl)-1H-indazol-5-yl)(phenyl)methyl)-N-(1,3,4-thiadiazol-2-yl)butanamide] |
| 13 nM | 4 nM | O=C(Nc1nncs1)C1(C(c2ccccc2)c2ccc3c(cnn3-c3ccc(F)cc3)c2)CCCCC1 (centres unmarked) [Example 150, 1-((1-(4-fluorophenyl)-1H-indazol-5-yl)(phenyl)methyl)-N-(1,3,4-thiadiazol-2-yl)cyclohexanecarboxamide] |
| 1770 nM | 4.3 nM | CC(CO)(C(=O)Nc1nncs1)C(c1ccccc1)c1ccc2c(cnn2-c2ccc(F)cc2)c1 (centres unmarked) [Example 155, 3-(1-(4-Fluorophenyl)-1H-indazol-5-yl)-2-(hydroxymethyl)-2-methyl-3-phenyl-N-(1,3,4-thiadiazol-2-yl)propanamide] |

More lines, now with the values behind:

| Compound | EC50 [1] | Ki [2] |
| --- | --- | --- |
| O=C(Nc1nncs1)C(Cc1ccccc1)C(c1ccccc1)c1ccc2c(cnn2-c2ccc(F)cc2)c1 (centres unmarked) [Example 146, 2-benzyl-3-(1-(4-fluorophenyl)-1H-indazol-5-yl)-3-phenyl-N-(1,3,4-thiadiazol-2-yl)propanamide] | 2 nM | 1.5 nM |
| COC(=O)c1ccc(C(c2ccc3c(cnn3-c3ccc(F)cc3)c2)C(C)C(=O)Nc2nncs2)cc1 (centres unmarked) [Example 153, Methyl 4-(3-(1,3,4-thiadiazol-2-ylamino)-1-(1-(4-fluorophenyl)-1H-indazol-5-yl)-2-methyl-3-oxopropyl)benzoate] | 27 nM | 4.3 nM |
| CC(=O)OCC(C)(C(=O)Nc1nncs1)C(c1ccccc1)c1ccc2c(cnn2-c2ccc(F)cc2)c1 (centres unmarked) [Example 154, 3-(1,3,4-Thiadiazol-2-ylamino)-2-((1-(4-fluorophenyl)-1H-indazol-5-yl)(phenyl)methyl)-2-methyl-3-oxopropyl acetate] | 15 nM | 2.6 nM |
| CC(C)(C(=O)Nc1nncs1)[C@@H](c1ccccc1)c1ccc2c(cnn2-c2ccc(F)cc2C(N)=O)c1 [Example 156, 2-(5-((S)-3-(1,3,4-Thiadiazol-2-ylamino)-2,2-dimethyl-3-oxo-1-phenylpropyl)-1H-indazol-1-yl)-5-fluorobenzamide] | 135 nM | 22 nM |
| CN(C)C(=O)c1cc(F)ccc1-n1ncc2cc([C@H](c3ccccc3)C(C)(C)C(=O)Nc3nncs3)ccc21 [Example 158, 2-(5-((S)-3-(1,3,4-Thiadiazol-2-ylamino)-2,2-dimethyl-3-oxo-1-phenylpropyl)-1H-indazol-1-yl)-5-fluoro-N,N-dimethylbenzamide] | 2500 nM | 825 nM |
| CC(C)(C(=O)Nc1nncs1)[C@@H](c1ccccc1)c1ccc2c(cnn2-c2ccc(F)cc2N)c1 [Example 159, (3S)-3-(1-(2-Amino-4-fluorophenyl)-1H-indazol-5-yl)-2,2-dimethyl-3-phenyl-N-(1,3,4-thiadiazol-2-yl)propanamide] | 73 nM | 0.35 nM |
| CN(C)C(=O)Nc1cc(F)ccc1-n1ncc2cc([C@H](c3ccccc3)C(C)(C)C(=O)Nc3nncs3)ccc21 [Example 160, (3S)-3-(1-(2-(3,3-Dimethylureido)-4-fluorophenyl)-1H-indazol-5-yl)-2,2-dimethyl-3-phenyl-N-(1,3,4-thiadiazol-2-yl)propanamide] | 234 nM | 25 nM |
| CC(C)(C(=O)Nc1nncs1)[C@@H](c1ccccc1)c1ccc2c(cnn2-c2ccc(F)cc2NC(N)=O)c1 [Example 161, (3S)-3-(1-(4-Fluoro-2-ureidophenyl)-1H-indazol-5-yl)-2,2-dimethyl-3-phenyl-N-(1,3,4-thiadiazol-2-yl)propanamide] | 5000 nM | 32 nM |
